In patent publication US20010012854A1, “MULTICATALYTIC PROTEASE INHIBITORS FOR USE AS ANTI-TUMOR AGENTS” (priority 1997, published 2001):

What was measured:
[1] = system: human prostate cancer DU145 cells; assay: Detachment and apoptotic nuclear changes in DU145 cells; type: cell-based; settings: DU145, 16 h
Method: (§1) c. Treatment of cells with MCP inhibitor. Cells were treated with a specified MCP Inhibitor, a standard anticancer agent (etoposide or cisplatin), or DMSO (vehicle). During this process, morphological changes and cellular detachment (for attached cell lines) were monitored. At each time point, cells were harvested, and used for measurement of apoptosis and other biochemical events. In Example 1, infra, involving YVAD-CMK, Compound A was first added to Jurkat T cells. This was followed immediately by dividing the cells into multiple tissue culture flasks. YVAD-CMK was then added to an indicated concentration.
(§2) d. Flow cytometry nuclear staining and DNA fragmentation assays. DNA content analysis using flow cytometry was performed as described previously (Nicoletti, I., et al. J. Immunol. Methods 139:271-279, 1992). To assay nuclear morphology, cells were washed with PBS, fixed with 70% ethanol for 1 h, and stained with Hoechst 33258 (1 mM) for 30 min. The nuclear morphology of cells was visualized by fluorescence microscope (OLYMPUS BH2). DNA fragmentation was assayed as described previously (Grant, S., et al. Cancer Res. 52:6270-6278, 1992).
Similar to PC-3, about half of human prostate cancer DU145 cells became detached after exposure to Compound A for 16 h.

[2] = system: human Jurkat T cells; assay: Apoptosis in Jurkat T cells (flow cytometry sub-G1 DNA content, DNA fragmentation); type: cell-based; settings: Jurkat T cells
Method: as §1, §2
(§3) Example 1 was designed to determine if MCP is involved in the survival signaling pathway(s) and if inhibition of MCP activity induces apoptosis. Human Jurkat T cells were treated with 30 μM Compound A for 4 h. […] Both the p112 and p115 forms of RB as p112-115/RB were combined and used as an apoptosis marker.
When human Jurkat T cells were treated with 15 μM Compound A for 8 h, there was a 23% increase in the apoptotic population with sub-G1 DNA content (FIG. 2, panels b vs. a). By comparison, when Compound B was used, only an 8%-increase in sub-G1 population was detected (FIG. 2, panels c vs. a).

[3] = system: Jurkat Human T Cell Leukemia Line; assay: Jurkat cell viability assay (XTT reduction); type: cell-based; settings: Jurkat cells, 24 hours, viability by XTT reduction, read-out: Toxicity (IC50)
Method: f. Cell viability assay. Jurkat cells were treated with MCP inhibitors or vehicle for 30 min. at 37° C. Next, ionomycin (1 μM) and the phorbol ester PMA (10 ng/ml) were added, together with 0.2% ethanol. After 24 h, cell viability was assessed by reduction of XTT (Sigma, X4251). To each well, 50 μl of XTT (1 mg/ml) and 25 μl PMS (Sigma 9625, 5 mM) were added. After 3 h at 37° C., the OD of each well was read at 450 nm/690 nm by a plate reader.
(§4) The rank-order potency for Jurkat cell killing precisely matched the order for MCP inhibition (Table 2, below).

[4] = target: T1, MCP chymotrypsin-like activity (Homo sapiens, UniProt P28074); assay: Inhibition of MCP chymotrypsin-like activity; type: biochemical
Text: as §4
Inhibition of the chymotrypsin-like activity of MCP by the disclosed MCP inhibitors has been reported, but these MCP inhibitors produced relatively little inhibition on the MCP trypsin-like activity and cathepsin B, a vacuolar cysteine protease (Iqbal, M., et al. J. Med Chem. 38: 2276-2277, 1995; Iqbal, M., et al. Bioorg. Med. Chem. Lett. 6: 287-290, 1996; and Harding, C. V., et al. J. Immuno. 155: 1767-1775, 1995). Furthermore, the order of potency for inhibition of the chymotrypsin-like activity was reported to be Compound A>Compound B>Compound C by using both isolated MCP and intact murine B cells (Iqbal, M., et al. J. Med Chem. 38: 2276-2277, 1995; Iqbal, M., et al. Bioorg. Med. Chem. Lett. 6: 287-290, 1996; and Harding, C. V., et al. J. Immuno. 155: 1767-1775, 1995).

[5] = system: PARP, RB and caspase-3 cleavage in Jurkat T cells; assay: Western blot of caspase-3, PARP and RB in Jurkat T cells; type: cell-based, human
Method: (§5) e. Whole cell extracts and western blot assay. To prepare whole cell extracts, cells were washed with PBS, and homogenized in lysis buffer (50 mM Tris, pH 8.0, 5 mM EDTA, 150 mM NaCl, 0.5% Nonidet P-40, 0.5 mM PMSF and 0.5 mM dithiothreitol). Following 30 min rocking at 4° C., the lysates were centrifuged and the supernatants were collected as whole cell extracts. The protein samples were then analyzed by sodium dodecyl sulfate-6% polyacrylamide gel electrophoresis (20-60 μg protein per lane) followed by the enhanced chemiluminescence Western blot assay using specific antibodies to CPP32, PARP, p21, p27 or RB.
as §3
The ability of these three MCP inhibitors to induce changes in PARP and RB proteins in a parallel experiment was also investigated. […] This rank corresponded exactly to that of the three compounds for inhibition of the chymotrypsin-like activity in isolated proteasomes (Iqbal, M., et al. J. Med Chem. 38: 2276-2277, 1995; Iqbal, M., et al. Bioorg. Med. Chem. Lett. 6: 287-290, 1996) and in intact murine B cells (Harding, C. V., et al. J Immuno. 155: 1767-1775, 1995).

[6] = system: human breast cancer MCF-7 cells; assay: Detachment and apoptotic nuclear changes in MCF-7 cells; type: cell-based; settings: MCF-7, 24 h
Method: as §1, §2
Detachment was also found in at least half of human breast cancer MDA-MB-231 and MCF-7 cells, after exposure to Compound A for 24 h.

[7] = target: T1, MCP chymotrypsin-like activity; settings: literature values (Iqbal et al.; Rock et al.); read-out: Ki toward the proteasome chymotrypsin-like activity; cited from earlier work
[8] = system: human leukemia HL-60 cells; assay: Apoptosis in HL-60 cells (DNA fragmentation, PARP cleavage); type: cell-based; settings: 30 μM, 3-4 h
Method: as §2, §5
Example 1 was designed to determine if MCP is involved in the survival signaling pathway(s) and if inhibition of MCP activity induces apoptosis. Human Jurkat T cells were treated with 30 μM Compound A for 4 h. […]

Compound: CC(C)C[C@@H](C=O)NC(=O)[C@@H](CCCNC(=N)N[N+](=O)[O-])NC(=O)C(CCCCCCCCN1C(=O)c2ccccc2C1=O)C1CCCC1 (some centres unmarked) [Compound A]
- Detached cells [1]: about half
- Nuclear morphology [1]: Almost all the detached and even the attached DU145 cells exhibited apoptosis-specific nuclear morphology
- Increase in the apoptotic population with sub-G1 DNA content ([2]; 15 μM, 8 h): 23%
- Induction of apoptosis (sub-G1 DNA content, nuclear condensation/fragmentation, internucleosomal DNA fragmentation) ([2]; 30 μM, 4 h): apoptosis occurred
- IC50 [3]: 500 nM
- IC50 [4]: 2 nM
- Production of p85/PARP and p112-115/RB ([5]; Jurkat T cells, 15 μM, time course up to 24 h): production of p85/PARP and p 112-115/RB were observed after 2 h
- Cleavage of PARP to p85 and RB to p68 ([5]; Jurkat T cells, 30 μM, 4 h): induced cleavage of PARP to a p85 fragment
- Processing of caspase-3 ([5]; Jurkat T cells, 30 μM, 4 h): induced processing of caspase-3
- Cleavage of PARP ([5]; Jurkat cells, 30 μM, 3-4 h): complete cleavage of PARP
- Apoptosis by nuclear staining [6]: apoptotic morphology in all of the detached and most of the attached cells
- Detached cells [6]: at least half
- Ki [7]: < 2 nM
- Cleavage of PARP [8]: complete cleavage of PARP
